Values after ≈ are worked out from the molar mass of the structure shown. Where two headings read alike, the source gives them in different places.
Assays:
[1] = system: Staphylococcus aureus 133; test: ED100 in mice after intraperitoneal infection, Table 3; format: in vivo; settings: read-out: effective 100% dose (ED100)
Method: (§1) In animal experiments on mice, the effective 100% dose (ED100) in mg/Kg was determined for certain compounds of the invention after intraperitoneal infection and subcutaneous (s.c.) or oral (p.o.) administration of the preparation.

[2] = system: Escherichia coli C 165; test: as above; format: in vivo; settings: read-out: effective 100% dose (ED100)
Method: as §1

[3] = system: Streptococcus faecalis ATCC Blaschke; test: MIC, series dilution test (complete medium), Table 2; format: cell-based; settings: Enterococcus faecalis, 37° C, 18, 24 and 48 h, read-out: Minimum inhibitory concentration (MIC)
Method: (§2) Minimum inhibitory concentration (MIC) in γ/ml of medium, measured by the series dilution test (complete medium), incubation temperatures: 37° C, determination of the MIC after 18, 24 and 48 hours.

[4] = system: Streptococcus faecalis ATCC species; test: as above; format: cell-based; settings: Enterococcus faecalis, 37° C, 18, 24 and 48 h, read-out: Minimum inhibitory concentration (MIC)
Method: as §2

[5] = system: Escherichia coli 2; test: as above; format: cell-based; settings: 37° C, 18, 24 and 48 h, read-out: Minimum inhibitory concentration (MIC)
Method: as §2

[6] = system: Staphylococcus aureus BRL; test: as above; format: cell-based; settings: 37° C, 18, 24 and 48 h, read-out: Minimum inhibitory concentration (MIC)
Method: as §2

[7] = system: Streptococcus faecalis ATCC liquef.; test: as above; format: cell-based; settings: Enterococcus faecalis, 37° C, 18, 24 and 48 h, read-out: Minimum inhibitory concentration (MIC)
Method: as §2

[8] = system: Streptococcus faecalis ATCC 8699; test: as above; format: cell-based; settings: Enterococcus faecalis, ATCC8699, 37° C, 18, 24 and 48 h, read-out: Minimum inhibitory concentration (MIC)
Method: as §2

[9] = system: Klebsiella K 10; test: as above; format: cell-based; settings: K10, 37° C, 18, 24 and 48 h, read-out: Minimum inhibitory concentration (MIC)
Method: as §2

[10] = system: Escherichia coli 55 B 5; test: as above; format: cell-based; settings: 55B5, 37° C, 18, 24 and 48 h, read-out: Minimum inhibitory concentration (MIC)
Method: as §2

[11] = system: Pseudomonas aeruginosa W; test: as above; format: cell-based; settings: 37° C, 18, 24 and 48 h, read-out: Minimum inhibitory concentration (MIC)
Method: as §2

[12] = system: Proteus mirabilis G; test: as above; format: cell-based; settings: 37° C, 18, 24 and 48 h, read-out: Minimum inhibitory concentration (MIC)
Method: as §2

[13] = system: Streptococcus faecalis ATCC 8698; test: as above; format: cell-based; settings: Enterococcus faecalis, ATCC8698, 37° C, 18, 24 and 48 h, read-out: Minimum inhibitory concentration (MIC)
Method: as §2

[14] = system: Staphylococcus aureus 7705; test: as above; format: cell-based; settings: 37° C, 18, 24 and 48 h, read-out: Minimum inhibitory concentration (MIC)
Method: as §2

[15] = system: Klebsiella ATCC 10031; test: as above; format: cell-based; settings: ATCC10031, 37° C, 18, 24 and 48 h, read-out: Minimum inhibitory concentration (MIC)
Method: as §2

[16] = system: Salmonella paratyphii BB II; test: as above; format: cell-based; settings: 37° C, 18, 24 and 48 h, read-out: Minimum inhibitory concentration (MIC)
Method: as §2

[17] = system: Klebsiella 63; test: as above; format: cell-based; settings: 37° C, 18, 24 and 48 h, read-out: Minimum inhibitory concentration (MIC)
Method: as §2

[18] = system: Escherichia coli A 261; test: as above; format: cell-based; settings: A261, 37° C, 18, 24 and 48 h, read-out: Minimum inhibitory concentration (MIC)
Method: as §2

[19] = system: Streptococcus faecalis ATCC B. H.; test: as above; format: cell-based; settings: Enterococcus faecalis, 37° C, 18, 24 and 48 h, read-out: Minimum inhibitory concentration (MIC)
Method: as §2

[20] = system: Proteus mirabilis 2935; test: as above; format: cell-based; settings: 37° C, 18, 24 and 48 h, read-out: Minimum inhibitory concentration (MIC)
Method: as §2

[21] = system: Streptococcus faecalis ATCC 13; test: as above; format: cell-based; settings: Enterococcus faecalis, ATCC13, 37° C, 18, 24 and 48 h, read-out: Minimum inhibitory concentration (MIC)
Method: as §2

[22] = system: Staphylococcus aureus 133; test: as above; format: cell-based; settings: 37° C, 18, 24 and 48 h, read-out: Minimum inhibitory concentration (MIC)
Method: as §2

[23] = system: Streptococcus faecalis ATCC 8711; test: as above; format: cell-based; settings: Enterococcus faecalis, ATCC8711, 37° C, 18, 24 and 48 h, read-out: Minimum inhibitory concentration (MIC)
Method: as §2

[24] = system: Pseudomonas aeruginosa M; test: as above; format: cell-based; settings: 37° C, 18, 24 and 48 h, read-out: Minimum inhibitory concentration (MIC)
Method: as §2

[25] = system: Proteus vulgaris 3400; test: as above; format: cell-based; settings: 37° C, 18, 24 and 48 h, read-out: Minimum inhibitory concentration (MIC)
Method: as §2

[26] = system: Mycobacterium tuberculosis H 37 RV; test: as above; format: cell-based; settings: H37RV, 37° C, 18, 24 and 48 h, read-out: Minimum inhibitory concentration (MIC)
Method: as §2

[27] = system: Neisseria catharalis N 1/41; test: as above; format: cell-based; settings: N1/41, 37° C, 18, 24 and 48 h, read-out: Minimum inhibitory concentration (MIC)
Method: as §2

[28] = system: Escherichia coli C 165; test: as above; format: cell-based; settings: C165, 37° C, 18, 24 and 48 h, read-out: Minimum inhibitory concentration (MIC)
Method: as §2

[29] = system: Escherichia coli 183/58; test: as above; format: cell-based; settings: 37° C, 18, 24 and 48 h, read-out: Minimum inhibitory concentration (MIC)
Method: as §2

[30] = system: Mycoplasma gallisepticum; test: as above; format: cell-based; settings: Mycoplasmoides gallisepticum, 37° C, 18, 24 and 48 h, read-out: Minimum inhibitory concentration (MIC)
Method: as §2

[31] = system: Streptococcus faecalis ATCC 8564; test: as above; format: cell-based; settings: Enterococcus faecalis, ATCC8564, 37° C, 18, 24 and 48 h, read-out: Minimum inhibitory concentration (MIC)
Method: as §2

[32] = system: Pseudomonas aeruginosa B; test: as above; format: cell-based; settings: 37° C, 18, 24 and 48 h, read-out: Minimum inhibitory concentration (MIC)
Method: as §2

[33] = system: Streptococcus faecalis ATCC durans; test: as above; format: cell-based; settings: Enterococcus faecalis, 37° C, 18, 24 and 48 h, read-out: Minimum inhibitory concentration (MIC)
Method: as §2

[34] = system: Escherichia coli 14; test: as above; format: cell-based; settings: 37° C, 18, 24 and 48 h, read-out: Minimum inhibitory concentration (MIC)
Method: as §2

[35] = system: Streptococcus faecalis ATCC 9700; test: as above; format: cell-based; settings: Enterococcus faecalis, ATCC9700, 37° C, 18, 24 and 48 h, read-out: Minimum inhibitory concentration (MIC)
Method: as §2

[36] = system: Corynebacterium diphteriae gravis; test: as above; format: cell-based; settings: 37° C, 18, 24 and 48 h, read-out: Minimum inhibitory concentration (MIC)
Method: as §2

[37] = system: Streptococcus faecalis ATCC 8580; test: as above; format: cell-based; settings: Enterococcus faecalis, ATCC8580, 37° C, 18, 24 and 48 h, read-out: Minimum inhibitory concentration (MIC)
Method: as §2

[38] = system: Proteus vulgaris 1017; test: as above; format: cell-based; settings: 37° C, 18, 24 and 48 h, read-out: Minimum inhibitory concentration (MIC)
Method: as §2

[39] = system: Mycoplasma granularum; test: MIC, series dilution test, measured in a PPLO medium, Table 2; format: cell-based; settings: Acholeplasma granularum, 37° C, 18, 24 and 48 h, read-out: Minimum inhibitory concentration (MIC)
Method: as §2
(§3) *)measured in a PPLO medium

[40] = system: Mycoplasma gallisepticum; test: as above; format: cell-based; settings: Mycoplasmoides gallisepticum, 37° C, 18, 24 and 48 h, read-out: Minimum inhibitory concentration (MIC)
Method: as §2, §3

[41] = system: Streptococcus pyogenes W; test: MIC in vitro, plate test (agar), Table 1; format: cell-based; settings: about 37° C, readings 24 and 48 h
Method: (§4) The minimum inhibitory concentrations in vitro for some of the new compounds shown in Table 1 (MIC) were determined by the plate test in an agar medium of the following composition: |proteose peptone 10.0 g per liter |5.1 × 10^3 germs were inoculated per plate. […]. Readings were taken after 24 and 48 hours, and the incubation temperature was about 37° C.

[42] = system: Proteus vulgaris species; test: MIC in vitro, plate test (agar), Table 1; format: cell-based; settings: about 37° C, readings 24 and 48 h
Method: as §4

[43] = system: Escherichia coli A 261; test: MIC in vitro, plate test (agar), Table 1; format: cell-based; settings: A261, about 37° C, readings 24 and 48 h
Method: as §4

[44] = system: Staphylococcus aureus 133; test: MIC in vitro, plate test (agar), Table 1; format: cell-based; settings: about 37° C, readings 24 and 48 h
Method: as §4

[45] = system: Pseudomonas aeruginosa Bonn; test: MIC in vitro, plate test (agar), Table 1; format: cell-based; settings: about 37° C, readings 24 and 48 h
Method: as §4

[46] = system: Pseudomonas aeruginosa Walter; test: MIC in vitro, plate test (agar), Table 1; format: cell-based; settings: about 37° C, readings 24 and 48 h
Method: as §4

[47] = system: Escherichia coli C 165; test: MIC in vitro, plate test (agar), Table 1; format: cell-based; settings: C165, about 37° C, readings 24 and 48 h
Method: as §4

[48] = system: Kletosiella pneumonia 8085; test: MIC in vitro, plate test (agar), Table 1; format: cell-based; settings: about 37° C, readings 24 and 48 h
Method: as §4

[49] = system: Klebsiella pneumonia 63; test: MIC in vitro, plate test (agar), Table 1; format: cell-based; settings: Klebsiella pneumoniae, about 37° C, readings 24 and 48 h
Method: as §4

**Q.** What does the source list for `COC(=O)NN=Cc1c(C(=O)O)[n+]([O-])c2ccccc2[n+]1[O-]` [Example 13]?
**A.** ED100 ([1]; Staphylococcus aureus, 133, oral (p.c. [sic])): 50 mg/kg; ED100 ([1]; Staphylococcus aureus, 133, sc, s.c.): 25 mg/kg; ED100 ([2]; C165, oral (p.c. [sic])): 25 mg/kg; ED100 ([2]; C165, sc, s.c.): 25 mg/kg; MIC [3]: 6 to 25 µg/mL (≈ 19.6 to 81.6 µM); MIC [4]: 100 µg/mL (≈ 327 µM); MIC [5]: 25 to 50 µg/mL (≈ 81.6 to 163 µM); MIC [6]: 12 µg/mL (≈ 39.2 µM); MIC [7]: 50 µg/mL (≈ 163 µM); MIC [8]: 100 µg/mL (≈ 327 µM); MIC [9]: 50 µg/mL (≈ 163 µM); MIC [10]: 3 to 6 µg/mL (≈ 9.8 to 19.6 µM); MIC [11]: 400 µg/mL (≈ 1310 µM); MIC [12]: 12 µg/mL (≈ 39.2 µM); MIC [13]: 100 µg/mL (≈ 327 µM); MIC [14]: 12 µg/mL (≈ 39.2 µM); MIC [15]: 1 to 2 µg/mL (≈ 3.27 to 6.53 µM); MIC [16]: 12 µg/mL (≈ 39.2 µM); MIC [17]: 50 µg/mL (≈ 163 µM); MIC [18]: 25 to 50 µg/mL (≈ 81.6 to 163 µM); MIC [19]: 100 µg/mL (≈ 327 µM); MIC [20]: 12 µg/mL (≈ 39.2 µM); MIC [21]: 25 µg/mL (≈ 81.6 µM); MIC [22]: 1 µg/mL (≈ 3.27 µM); MIC [23]: 50 µg/mL (≈ 163 µM); MIC [24]: 25 µg/mL (≈ 81.6 µM); MIC [25]: 50 µg/mL (≈ 163 µM); MIC [26]: 40 µg/mL (≈ 131 µM); MIC [27]: 6 µg/mL (≈ 19.6 µM); MIC [28]: 50 to 100 µg/mL (≈ 163 to 327 µM); MIC [29]: 6 to 12 µg/mL (≈ 19.6 to 39.2 µM); MIC [30]: 6 µg/mL (≈ 19.6 µM); MIC [31]: 100 µg/mL (≈ 327 µM); MIC [32]: 25 µg/mL (≈ 81.6 µM); MIC [33]: 25 µg/mL (≈ 81.6 µM); MIC [34]: 12 to 25 µg/mL (≈ 39.2 to 81.6 µM); MIC [35]: 50 µg/mL (≈ 163 µM); MIC [36]: 5 to 10 µg/mL (≈ 16.3 to 32.7 µM); MIC [37]: 50 µg/mL (≈ 163 µM); MIC [38]: 17 µg/mL (≈ 55.5 µM); MIC [39]: 3 µg/mL (≈ 9.8 µM); MIC [40]: 6 µg/mL (≈ 19.6 µM); MIC [41]: 100 µg/mL (≈ 327 µM); MIC [42]: 10 µg/mL (≈ 32.7 µM); MIC [43]: 20 µg/mL (≈ 65.3 µM); MIC [44]: 10 µg/mL (≈ 32.7 µM); MIC [45]: 100 µg/mL (≈ 327 µM); MIC [46]: 100 µg/mL (≈ 327 µM); MIC [47]: 50 µg/mL (≈ 163 µM); MIC [48]: 20 µg/mL (≈ 65.3 µM); MIC [49]: 100 µg/mL (≈ 327 µM)

Reference: patent US3984547A, “Veterinary feedstuffs” (Bayer Aktiengesellschaft, priority 1971, dated 1976)
